From PubChem BioAssay (NCI)
“And” between values parts separate entries of the source, which are not always exact repeats. Equal values may be shown once.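 In this assay, cells in 96-well plates receive the compound at five concentrations for 48 hours. Endpoints are linearly interpolated between the surrounding concentrations. GI50 marks 50% less growth. At the TGI there is no net growth.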

What was measured:
Test in all cases: NCI-60 cell line screen, 48 h
[1] = system: HCC-2998 colon
[2] = system: SK-OV-3 ovarian
[3] = system: HOP-62 NSCLC
[4] = system: NCI-H460 lung
[5] = system: LOX IMVI melanoma
[6] = system: NCI-H522 lung
[7] = system: OVCAR-8 ovarian
[8] = system: EKVX NSCLC
[9] = system: NCI-H226 lung
[10] = system: TK-10 renal

| Structure (SMILES) | GI50 [1] | TGI [1] | GI50 [2] | TGI [2] | GI50 [3] | TGI [3] | GI50 [4] | TGI [4] | GI50 [5] | TGI [5] | GI50 [6] | TGI [6] | GI50 [7] | TGI [7] | GI50 [8] | TGI [8] [µM] | GI50 [9] | TGI [9] | GI50 [10] | TGI [10] |
| --- | --- | --- | --- | --- | --- | --- | --- | --- | --- | --- | --- | --- | --- | --- | --- | --- | --- | --- | --- | --- |
| CCOC(=O)c1cc2c(cc1Cl)SC(=Nc1ccccc1)N(S(=O)(=O)c1ccc(Cl)cc1)S2(=O)=O | 13.5 µM | 27.9 µM | 17.4 µM | 35.2 µM | 16 µM | 32.6 µM | 18.8 µM | 46.7 µM | 3.17 µM | 15 µM | 15.5 µM | 42.8 µM | 22.1 µM | 59.6 µM | 16.6 µM | 31.8 | 6.03 µM | 28.2 µM | 16.8 µM | 32.3 µM |
| CNC(=O)c1cc(Oc2ccc(NC(=O)Nc3ccc(Cl)c(C(F)(F)F)c3)c(F)c2)ccn1 | 2.44 µM and 1.9 µM | 10.4 µM and 8.17 µM | 3.2 µM and 2.43 µM | 12.3 µM and 8.49 µM | 2.83 µM and 2.33 µM | 14.5 µM and > 10 µM | 2.67 µM and 2.86 µM | 9.42 µM and > 10 µM | 1.12 µM and 0.787 µM | 6.93 µM and > 10 µM | 1.73 µM and 1.7 µM | 5.84 µM and 6.43 µM | 2.39 µM and 2.31 µM | > 20.8 µM and 8.28 µM | 2.96 µM and 2.68 µM | > 44 | 2.15 µM and 0.988 µM | 8.01 µM and 8.05 µM | 3.5 µM and 3.03 µM | 27.8 µM and > 10 µM |
| NC(=O)c1cc([N+](=O)[O-])c(Cl)c([N+](=O)[O-])c1Cl | 1.82 µM | 3.45 µM | 4.21 µM | 14.5 µM | 1.75 µM | 3.16 µM | 1.74 µM | 3.49 µM | 0.33 µM | 1.16 µM | 0.162 µM | 0.319 µM | 1.26 µM | 2.56 µM | 2.08 µM | 4.85 | 1.79 µM | 3.36 µM | 1.61 µM | 2.99 µM |
| CC1CC[P+](c2ccccc2)(c2ccccc2)c2c1ccc1ccccc21 (centres undefined) | – | 41.9 µM | 2.73 µM | 16.4 µM | 11.5 µM | > 57.5 µM | – | 10.1 µM | – | 7.61 µM | – | 9.87 µM | – | 21.1 µM | 92 µM | > 100 | 8.48 µM | 62.8 µM | 11.4 µM | > 100 µM |
| Nc1ccc(C(=O)N/C(=C\c2cccc([N+](=O)[O-])c2)c2nc3[nH]c(=S)[nH]c(=O)c3[nH]2)cc1 | – | > 100 µM | – | 56.2 µM | – | 45.6 µM | – | > 100 µM | – | > 100 µM | – | > 100 µM | – | > 90.3 µM | – | > 100 | – | > 96.7 µM | – | > 100 µM |
| NCCCC[C@@H]1NC(=O)[C@H](CC(=O)O)NC(=O)CNC(=O)[C@H](CCCN=C(N)N)NC(=O)[C@@H](N)CSSC[C@@H](C(=O)O)NC(=O)[C@H](CC(=O)O)NC(=O)[C@@H]2CCCN2C(=O)CNC1=O | > 100 µM | > 100 µM | > 100 µM | > 100 µM | > 100 µM | > 100 µM | > 100 µM | > 100 µM | > 100 µM | > 100 µM | > 100 µM | > 100 µM | > 100 µM | > 100 µM | > 100 µM | > 100 | > 100 µM | > 100 µM | > 100 µM | > 100 µM |
| COc1ccc2c(c1)[nH]c(=O)c1c3cccc(F)c3cn21 | 0.143 µM | 0.822 µM | 0.0848 µM | > 83.5 µM | 0.641 µM | 51.3 µM | 0.0442 µM | 11.7 µM | 0.0759 µM | > 100 µM | 0.0756 µM | > 35.5 µM | 0.129 µM | > 73.3 µM | 1.27 µM | > 100 | 12.1 µM | 44.7 µM | 9.55 µM | > 100 µM |
| Cc1ccc(/C=N/Nc2nc(Nc3ccccc3)nc(-n3nc(C)cc3C)n2)cc1 | 2.71 µM | 6.6 µM | 11.8 µM | > 100 µM | 5.27 µM | 29.2 µM | 2.11 µM | 8.91 µM | 3.81 µM | 22.1 µM | 2.67 µM | 6.48 µM | 3.33 µM | 11.5 µM | 3 µM | 31.5 | 4.88 µM | 37.7 µM | 3.52 µM | 22.9 µM |
| c1ccc(C2OC3(CCC[C@H]4C[C@H]43)O[C@H]2c2ccccc2)cc1 (some centres undefined) | – | > 100 µM | – | > 100 µM | – | > 100 µM | – | > 100 µM | – | 56.8 µM | – | 67.1 µM | – | > 100 µM | – | > 100 | – | > 100 µM | – | > 100 µM |
| CC(C)(C)c1ccc(Oc2ccc(N)cn2)cc1 | > 100 µM | > 100 µM | > 100 µM | > 100 µM | > 100 µM | > 100 µM | 72.3 µM | > 100 µM | 60.1 µM | > 100 µM | 9.46 µM | > 100 µM | 75.6 µM | > 100 µM | 28.2 µM | > 100 | 44.5 µM | > 100 µM | > 100 µM | > 100 µM |
| Nc1nc([Se])c2ncn(C3OC(CO)C(O)C3O)c2n1 (centres undefined) | 17.9 µM | > 100 µM | 6.96 µM | > 100 µM | 3.73 µM | > 100 µM | 4.54 µM | 57.1 µM | 2.85 µM | > 100 µM | 42.5 µM | > 100 µM | 3.86 µM | > 100 µM | 37.6 µM | > 100 | 9.29 µM | > 100 µM | 7.55 µM | > 100 µM |
| COc1ccc(CN2c3ccccc3Sc3ccccc32)c(C(F)(F)F)c1 | 2 µM | 10.3 µM | 0.557 µM | > 100 µM | 0.604 µM | 35.6 µM | 0.456 µM | > 100 µM | 0.832 µM | 33.3 µM | 0.314 µM | 2.84 µM | 2.22 µM | > 100 µM | 1.2 µM | > 100 | 10.4 µM | 56.3 µM | 5.82 µM | > 100 µM |
| CCOCCCn1c2c(c3c(O)cccc31)C(=O)c1ccccc1-2 | 22.1 µM | 64.3 µM | 24.8 µM | 72.4 µM | 17.8 µM | 48 µM | 21.6 µM | 63.9 µM | 17.2 µM | 32.7 µM | 14 µM | 35.7 µM | 31.1 µM | > 100 µM | 24.3 µM | 79 | 24.1 µM | 81.6 µM | 23.4 µM | 76.2 µM |
| CCOC(=O)Oc1cc2c(c(OC)c1OC)-c1ccc(OC)c(=O)cc1C(NC(C)=O)CC2 (centres undefined) | – | 0.683 µM | – | 98.1 µM | – | > 93.1 µM | – | 6.67 µM | – | > 100 µM | – | 0.0271 µM | – | 19.7 µM | – | > 100 | – | 0.787 µM | – | > 100 µM |
| O=C([CH-]C(=O)c1ccccc1)c1ccccc1.[CH-]1CCCCC1.[CH-]1CCCCC1.[CH-]1CCCCC1.[Sn+4] | 6.1 µM | 18.9 µM | 43.5 µM | 68.6 µM | 7.85 µM | 20 µM | 8.88 µM | – | 4.61 µM | 18.9 µM | 2.03 µM | 5.26 µM | 5.47 µM | 55.4 µM | 10.7 µM | 32.6 | 5.73 µM | 39.3 µM | 12.1 µM | 26.1 µM |
| CCC(C)Nc1ccc(N)cc1 (centres undefined) | 4.39 µM | 16.1 µM | 4.98 µM | 93.3 µM | 4.14 µM | 14.9 µM | 3.85 µM | 13.9 µM | 3.43 µM | 11 µM | 3.07 µM | 9.07 µM | 4.19 µM | 22.2 µM | 3.47 µM | 14.8 | 4.39 µM | 19 µM | 5.72 µM | 25.3 µM |
| COc1ccc2c(c1OC)CO[C@@H]2[C@H]1c2c(cc3c(c2OC)OCO3)CCN1S(=O)(=O)c1cn(C)cn1 | 3.23 µM | > 100 µM | 2.57 µM | > 100 µM | 1.88 µM | > 100 µM | 2.87 µM | 26.8 µM | 4.48 µM | > 100 µM | 0.427 µM | 8.32 µM | 3.24 µM | > 100 µM | 13.1 µM | > 100 | 0.462 µM | 4.48 µM | > 100 µM | > 100 µM |
| O=C(CC1OC(O)C(Cl)=C1Cl)c1cccnc1 (centres undefined) | – | > 100 µM | – | > 100 µM | – | > 77.7 µM | – | > 100 µM | – | > 100 µM | – | > 100 µM | – | > 100 µM | – | > 100 | – | > 100 µM | – | > 100 µM |
| O=C(/C=C/c1ccccc1F)c1ccc(Cl)c(Cl)c1 | – | > 71 µM | – | > 100 µM | – | > 100 µM | – | > 100 µM | – | 23.6 µM | – | 61.2 µM | – | > 100 µM | – | > 100 | – | > 100 µM | – | > 100 µM |
| O=C(/C=C\c1ccc([N+](=O)[O-])cc1)c1ccccc(=O)c1O | – | 5.6 µM | – | 17.2 µM | – | 15.5 µM | – | 3.64 µM | – | 2.86 µM | – | 6.63 µM | – | 11.3 µM | – | 11.9 | – | 6.7 µM | – | 8.91 µM |
